# Assay: Inhibition of recombinant human IL-17A/IL-17AR protein-protein interaction using TMB substrate compound added on IL17A precoated plate and followed by IL-17AR addition by ELISA
row,Compound,IC50
1,CO[C@]1(C)C[C@H](O[C@H]2[C@H](C)[C@@H](O[C@@H]3O[C@H](C)C[C@H](N(C)C)[C@H]3O)[C@](C)(O)C[C@@H](C)CN(C)C(=O)C[C@@H](Cc3ccc(NC(=O)[C@H](Cc4ccccc4Cl)NC(=O)Cc4ccc(S(C)(=O)=O)cc4)cc3)NC(=O)[C@H](C(C)C)NC(=O)[C@@H]2C)O[C@@H](C)[C@@H]1O,0.946 µM
2,CO[C@]1(C)C[C@H](O[C@H]2[C@H](C)[C@@H](O[C@@H]3O[C@H](C)C[C@H](N(C)C)[C@H]3O)[C@](C)(O)C[C@@H](C)CN(C)C(=O)C[C@@H](Cc3ccc(NC(=O)[C@H](Cc4ccccc4Cl)NC(=O)Cc4cccc(F)c4)cc3)NC(=O)[C@H](C(C)C)NC(=O)[C@@H]2C)O[C@@H](C)[C@@H]1O,0.08 µM
3,CO[C@]1(C)C[C@H](O[C@H]2[C@H](C)[C@@H](O[C@@H]3O[C@H](C)C[C@H](N(C)C)[C@H]3O)[C@](C)(O)C[C@@H](C)CN(C)C(=O)C[C@@H](Cc3ccc(NC(=O)[C@H](Cc4ccccc4Cl)NC(=O)Nc4ccccc4F)cc3)NC(=O)[C@H](C(C)C)NC(=O)[C@@H]2C)O[C@@H](C)[C@@H]1O,0.03 µM
4,CO[C@]1(C)C[C@H](O[C@H]2[C@H](C)[C@@H](O[C@@H]3O[C@H](C)C[C@H](N(C)C)[C@H]3O)[C@](C)(O)C[C@@H](C)CN(C)C(=O)C[C@@H](Cc3ccc(NC(=O)[C@H](Cc4ccccc4Cl)NC(=O)Cc4ccc(C#N)cc4)cc3)NC(=O)[C@H](C(C)C)NC(=O)[C@@H]2C)O[C@@H](C)[C@@H]1O,0.303 µM
5,CO[C@]1(C)C[C@H](O[C@H]2[C@H](C)[C@@H](O[C@@H]3O[C@H](C)C[C@H](N(C)C)[C@H]3O)[C@](C)(O)C[C@@H](C)CN(C)C(=O)C[C@@H](Cc3ccc(NC(=O)[C@H](Cc4ccccc4Cl)NC(=O)NCc4ccccc4F)cc3)NC(=O)[C@H](C(C)C)NC(=O)[C@@H]2C)O[C@@H](C)[C@@H]1O,0.346 µM
6,COc1ccc(C(=O)N[C@@H](Cc2ccccc2Cl)C(=O)Nc2ccc(C[C@@H]3CC(=O)N(C)C[C@H](C)C[C@@](C)(O)[C@H](O[C@@H]4O[C@H](C)C[C@H](N(C)C)[C@H]4O)[C@@H](C)[C@H](O[C@H]4C[C@@](C)(OC)[C@@H](O)[C@H](C)O4)[C@@H](C)C(=O)N[C@@H](C(C)C)C(=O)N3)cc2)cc1,0.397 µM
7,CO[C@]1(C)C[C@H](O[C@H]2[C@H](C)[C@@H](O[C@@H]3O[C@H](C)C[C@H](N(C)C)[C@H]3O)[C@](C)(O)C[C@@H](C)CN(C)C(=O)C[C@@H](Cc3ccc(NC(=O)[C@H](Cc4ccccc4Cl)NC(=O)NCc4cccc(F)c4)cc3)NC(=O)[C@H](C(C)C)NC(=O)[C@@H]2C)O[C@@H](C)[C@@H]1O,0.048 µM
8,CO[C@]1(C)C[C@H](O[C@H]2[C@H](C)[C@@H](O[C@@H]3O[C@H](C)C[C@H](N(C)C)[C@H]3O)[C@](C)(O)C[C@@H](C)CN(C)C(=O)C[C@@H](Cc3ccc(NC(=O)[C@H](Cc4ccccc4Cl)NC(=O)Cc4cccc(C#N)c4)cc3)NC(=O)[C@H](C(C)C)NC(=O)[C@@H]2C)O[C@@H](C)[C@@H]1O,0.471 µM
9,CO[C@]1(C)C[C@H](O[C@H]2[C@H](C)[C@@H](O[C@@H]3O[C@H](C)C[C@H](N(C)C)[C@H]3O)[C@](C)(O)C[C@@H](C)CN(C)C(=O)C[C@@H](Cc3ccc(NC(=O)[C@H](Cc4ccccc4)NC(=O)Cc4ccccc4)cc3)NC(=O)[C@H](C(C)C)NC(=O)[C@@H]2C)O[C@@H](C)[C@@H]1O,2.56 µM
10,COc1ccc(C2(C(=O)N[C@@H](Cc3ccccc3Cl)C(=O)Nc3ccc(C[C@@H]4CC(=O)N(C)C[C@H](C)C[C@@](C)(O)[C@H](O[C@@H]5O[C@H](C)C[C@H](N(C)C)[C@H]5O)[C@@H](C)[C@H](O[C@H]5C[C@@](C)(OC)[C@@H](O)[C@H](C)O5)[C@@H](C)C(=O)N[C@@H](C(C)C)C(=O)N4)cc3)CC2)cc1,5.39 µM
11,CO[C@]1(C)C[C@H](O[C@H]2[C@H](C)[C@@H](O[C@@H]3O[C@H](C)C[C@H](N(C)C)[C@H]3O)[C@](C)(O)C[C@@H](C)CN(C)C(=O)C[C@@H](Cc3ccc(NC(=O)[C@H](Cc4ccccc4Cl)NC(=O)Nc4cccc(F)c4)cc3)NC(=O)[C@H](C(C)C)NC(=O)[C@@H]2C)O[C@@H](C)[C@@H]1O,0.547 µM
12,CO[C@]1(C)C[C@H](O[C@H]2[C@H](C)[C@@H](O[C@@H]3O[C@H](C)C[C@H](N(C)C)[C@H]3O)[C@](C)(O)C[C@@H](C)CN(C)C(=O)C[C@@H](Cc3ccc(NC(=O)[C@H](Cc4ccccc4Cl)NC(=O)Cc4ccc(C(=O)O)cc4)cc3)NC(=O)[C@H](C(C)C)NC(=O)[C@@H]2C)O[C@@H](C)[C@@H]1O,> 10 µM
13,CO[C@]1(C)C[C@H](O[C@H]2[C@H](C)[C@@H](O[C@@H]3O[C@H](C)C[C@H](N(C)C)[C@H]3O)[C@](C)(O)C[C@@H](C)CN(C)C(=O)C[C@@H](Cc3ccc(NC(=O)[C@H](Cc4ccccc4Cl)NC(=O)Cc4ccccc4)cc3)NC(=O)CC3(CCCC3)CNC(=O)[C@@H]2C)O[C@@H](C)[C@@H]1O,6.76 µM
14,CO[C@]1(C)C[C@H](O[C@H]2[C@H](C)[C@@H](O[C@@H]3O[C@H](C)C[C@H](N(C)C)[C@H]3O)[C@](C)(O)C[C@@H](C)CN(C)C(=O)C[C@@H](Cc3ccc(NC(=O)[C@H](Cc4c(Cl)cccc4Cl)NC(=O)Cc4ccccc4)cc3)NC(=O)[C@H](C(C)C)NC(=O)[C@@H]2C)O[C@@H](C)[C@@H]1O,0.166 µM

# The remaining lines, values ahead:
row,IC50,Compound
1,5.9 µM,CO[C@]1(C)C[C@H](O[C@H]2[C@H](C)[C@@H](O[C@@H]3O[C@H](C)C[C@H](N(C)C)[C@H]3O)[C@](C)(O)C[C@@H](C)CN(C)C(=O)C[C@@H](Cc3ccc(NC(=O)[C@H](Cc4ccccc4Cl)NC(=O)Cc4ccccc4)cc3)NC(=O)[C@@H]3CCC[C@H]3NC(=O)[C@@H]2C)O[C@@H](C)[C@@H]1O
2,> 30 µM,CO[C@]1(C)C[C@H](O[C@H]2[C@H](C)[C@@H](O[C@@H]3O[C@H](C)C[C@H](N(C)C)[C@H]3O)[C@](C)(O)C[C@@H](C)CN(C)C(=O)C[C@@H](Cc3ccc(NC(=O)[C@H](Cc4ccccc4Cl)NC(=O)Cc4ccccc4)cc3)NC(=O)C[C@@H](CC(C)C)NC(=O)[C@@H]2C)O[C@@H](C)[C@@H]1O
3,0.32 µM,CO[C@]1(C)C[C@H](O[C@H]2[C@H](C)[C@@H](O[C@@H]3O[C@H](C)C[C@H](N(C)C)[C@H]3O)[C@](C)(O)C[C@@H](C)CN(C)C(=O)C[C@@H](Cc3ccc(NC(=O)[C@H](Cc4ccccc4Cl)NC(=O)c4ccccc4)cc3)NC(=O)[C@H](C(C)C)NC(=O)[C@@H]2C)O[C@@H](C)[C@@H]1O
4,> 30 µM,CO[C@]1(C)C[C@H](O[C@H]2[C@H](C)[C@@H](O[C@@H]3O[C@H](C)C[C@H](N(C)C)[C@H]3O)[C@](C)(O)C[C@@H](C)CN(C)C(=O)[C@H](C(C)C)NC(=O)C[C@@H](Cc3ccc(NC(=O)[C@H](Cc4ccccc4Cl)NC(=O)Cc4ccccc4)cc3)NC(=O)[C@@H]2C)O[C@@H](C)[C@@H]1O
5,> 30 µM,CO[C@]1(C)C[C@H](O[C@H]2[C@H](C)[C@@H](O[C@@H]3O[C@H](C)C[C@H](N(C)C)[C@H]3O)[C@](C)(O)C[C@@H](C)CN(C)C(=O)C[C@H](Cc3ccc(NC(=O)[C@H](Cc4ccccc4Cl)NC(=O)Cc4ccccc4)cc3)NC(=O)[C@@H](C(C)C)NC(=O)[C@@H]2C)O[C@@H](C)[C@@H]1O
6,> 30 µM,CO[C@]1(C)C[C@H](O[C@H]2[C@H](C)[C@@H](O[C@@H]3O[C@H](C)C[C@H](N(C)C)[C@H]3O)[C@](C)(O)C[C@@H](C)CN(C)C(=O)C[C@@H](Cc3ccc(NC(=O)[C@H](Cc4ccccc4Cl)NC(=O)Cc4ccccc4)cc3)NC(=O)[C@@H](C(C)C)NC(=O)[C@@H]2C)O[C@@H](C)[C@@H]1O
7,0.116 µM,CO[C@]1(C)C[C@H](O[C@H]2[C@H](C)[C@@H](O[C@@H]3O[C@H](C)C[C@H](N(C)C)[C@H]3O)[C@](C)(O)C[C@@H](C)CN(C)C(=O)C[C@@H](Cc3ccc(NC(=O)[C@H](Cc4ccccc4Cl)NC(=O)Cc4ccccc4C)cc3)NC(=O)[C@H](C(C)C)NC(=O)[C@@H]2C)O[C@@H](C)[C@@H]1O
8,15 µM,CO[C@]1(C)C[C@H](O[C@H]2[C@H](C)[C@@H](O[C@@H]3O[C@H](C)C[C@H](N(C)C)[C@H]3O)[C@](C)(O)C[C@@H](C)CN(C)C(=O)C[C@@H](Cc3ccc(NC(=O)[C@H](Cc4ccccc4Cl)NC(=O)Cc4ccccc4)cc3)NC(=O)[C@H](C)NC(=O)[C@@H]2C)O[C@@H](C)[C@@H]1O
9,> 30 µM,CO[C@]1(C)C[C@H](O[C@H]2[C@H](C)[C@@H](O[C@@H]3O[C@H](C)C[C@H](N(C)C)[C@H]3O)[C@](C)(O)C[C@@H](C)CN(C)C(=O)[C@@H](Cc3ccc(NC(=O)[C@H](Cc4ccccc4Cl)NC(=O)Cc4ccccc4)cc3)NC(=O)C[C@H](C(C)C)NC(=O)[C@@H]2C)O[C@@H](C)[C@@H]1O
10,0.315 µM,CO[C@]1(C)C[C@H](O[C@H]2[C@H](C)[C@@H](O[C@@H]3O[C@H](C)C[C@H](N(C)C)[C@H]3O)[C@](C)(O)C[C@@H](C)CN(C)C(=O)C[C@@H](Cc3ccc(NC(=O)[C@H](Cc4ccccc4F)NC(=O)Cc4ccccc4)cc3)NC(=O)[C@H](C(C)C)NC(=O)[C@@H]2C)O[C@@H](C)[C@@H]1O
11,> 30 µM,CO[C@]1(C)C[C@H](O[C@H]2[C@H](C)[C@@H](O[C@@H]3O[C@H](C)C[C@H](N(C)C)[C@H]3O)[C@](C)(O)C[C@@H](C)CN(C)C(=O)C[C@@H](Cc3ccc(NC(=O)[C@H](Cc4ccccc4Cl)NC(=O)Cc4ccccc4)cc3)NC(=O)CCNC(=O)[C@@H]2C)O[C@@H](C)[C@@H]1O
12,0.059 µM,CO[C@]1(C)C[C@H](O[C@H]2[C@H](C)[C@@H](O[C@@H]3O[C@H](C)C[C@H](N(C)C)[C@H]3O)[C@](C)(O)C[C@@H](C)CN(C)C(=O)C[C@@H](Cc3ccc(NC(=O)[C@H](Cc4ccccc4Cl)NC(=O)OCc4ccccc4)cc3)NC(=O)[C@H](C(C)C)NC(=O)[C@@H]2C)O[C@@H](C)[C@@H]1O
13,15.9 µM,CO[C@]1(C)C[C@H](O[C@H]2[C@H](C)[C@@H](O[C@@H]3O[C@H](C)C[C@H](N(C)C)[C@H]3O)[C@](C)(O)C[C@@H](C)CN(C)C(=O)[C@H](Cc3ccc(NC(=O)[C@H](Cc4ccccc4Cl)NC(=O)Cc4ccccc4)cc3)NC(=O)[C@H](C(C)C)NC(=O)[C@@H]2C)O[C@@H](C)[C@@H]1O
14,> 30 µM,CO[C@]1(C)C[C@H](O[C@H]2[C@H](C)[C@@H](O[C@@H]3O[C@H](C)C[C@H](N(C)C)[C@H]3O)[C@](C)(O)C[C@@H](C)CN(C)C(=O)[C@@H](Cc3ccc(NC(=O)[C@H](Cc4ccccc4Cl)NC(=O)Cc4ccccc4)cc3)NC(=O)[C@@H](C(C)C)CNC(=O)[C@@H]2C)O[C@@H](C)[C@@H]1O
